Test results published in the METLIN SMRT retention time set (Domingo-Almenara et al. 2019).

Experiment: gradient 5% acetonitrile 3 min, to 50% in 2 min, to 85% in 15 min, held 3 min, 100 µL/min
Details: column: Zorbax Extend-C18 2.1 x 50 mm; eluents: water / acetonitrile, 0.1% formic acid
How it was run: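 Retention times of pure standards were taken from adduct peaks that were selected by computer and manually inspected. Over 3 months, mixtures of ~100 molecules were run by HPLC–quadrupole time-of-flight mass spectrometry in positive and negative ionization mode. The Zorbax Extend-C18 column (2.1 × 50 mm, 1.8 μm) ran at 100 μL/min in water and acetonitrile, each containing 0.1% formic acid, with 40 μL dead volume and 900 μL dwell volume.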

Row | SMILES | RP-LC retention time
1 | O=C(CC(=O)Nc1ccccc1Cl)Nc1ccc2nc3n(c(=O)c2c1)CCCCC3 | 772 s
2 | Oc1ccc(-c2nc3ccc(Cl)cn3c2Nc2ccc3c(c2)OCCO3)cc1 | 748 s
3 | Cn1c(C2CCN(C(=O)c3cccc(Cl)c3)C2)nc2ccncc21 (stereo not given) | 554 s
4 | NS(=O)(=O)c1ccc(NC(=O)CCCN2C(=O)c3cccc4cccc(c34)C2=O)cc1 | 694 s
5 | Cc1cc(C)c(CNC(=O)c2ccc3c(c2)CC(=O)N3C)c(C)c1 | 830 s
6 | COc1ccccc1N1CCN(CCCCN2C(=O)c3ccccc3C2=O)CC1 | 751 s
7 | O=C([C@@H]1C[C@H](F)CN1S(=O)(=O)c1ccc(F)cc1F)N1CCc2ccccc2C1 | 906 s
8 | N#Cc1cn(CC(=O)NCc2ccc3c(c2)OCCCO3)c2ccccc12 | 842 s
9 | CCn1cc(-c2nc(C(=O)Nc3cc(OC)cc(OC)c3)cs2)c2cccnc21 | 1030 s
10 | COc1ccccc1NC(=O)N1CCC2(CC1)N=C(c1cccc(F)c1)C(=O)N2 | 840 s
11 | CCN(C(=O)Cn1ccn2nc(-c3ccccc3)c(CO)c2c1=O)c1ccccc1 | 838 s
12 | CCCCC(C)C(=O)NC1CCN(C2=NS(=O)(=O)C(c3ccc(C)c(C)c3)=C2C)CC1 (stereo not given) | 987 s
13 | Cc1c(Cl)cccc1NC(=O)NC1CCN(c2cc(N3CCCC3)cnn2)C1 (stereo not given) | 668 s
14 | COCc1cc2nn(CC(=O)NC3CCCCC3)c(=O)n2c(-c2ccccc2)n1 | 785 s
15 | O=C(c1nnc(-c2ccc(S(=O)(=O)N3CCCCC3)cc2)o1)N1CCC(N2CCCCC2)CC1 | 654 s
16 | CC(Cc1cccs1)NS(=O)(=O)c1ccc2c(c1)OCCO2 (stereo not given) | 840 s
17 | O=C(CCc1nnn2c1CN(C(=O)C1CCCC1)CC2)N1CCOCC1 | 616 s
18 | CC(C)C(=O)N1CCc2c(c(C(=O)N3CCC(C(=O)N4CCCCCC4)CC3)nn2C)C1 | 656 s
19 | Cc1ccc(CNc2ncccc2-c2nnc(-c3ccc(Cl)cc3)o2)o1 | 1350 s
20 | CCn1c(=O)n(CC)c2cc(S(=O)(=O)c3ccc(C)cc3)c(NC(=O)C3CC3)cc21 | 873 s

Row | SMILES | RP-LC retention time
21 | Cc1ccc(Cn2c(=O)c(N3CCN(C(=O)NCC4CCCO4)CC3)nc3ccccc32)cc1 (stereo not given) | 908 s
22 | O=C(CCc1c(-c2ccc(Br)cc2)nc2ccccn12)NC1CC1 | 610 s
23 | O=C(CCc1c[nH]c2ccccc12)N1[C@H]2CC[C@@H]1c1cnc(-c3ccccc3)nc1C2 | 884 s
24 | Cc1cc(F)ccc1NS(=O)(=O)c1cc(-c2[nH]ncc2C(=O)N2CCOCC2)oc1C | 678 s
25 | COc1ccccc1N1CCN(CCNC(=O)c2c(F)cccc2F)CC1 | 567 s
26 | Cc1nc2cc(-c3noc(Cc4ccc(Cl)cc4)n3)ccc2o1 | 1070 s
27 | O=C(Nc1cnc(N2CCN(c3ccccc3Cl)CC2)c(C(=O)O)c1)c1cccs1 | 910 s
28 | COCCCNC(=O)C1CCCN(S(=O)(=O)c2ccc(OC)c(C)c2)C1 (stereo not given) | 768 s
29 | CN(C)C(=O)c1ccc2c(c1)nnn2CCNC(=O)Nc1ccccc1 | 626 s
30 | CCOC(=O)c1noc2nc(C)nc(Nc3ccc(CN4CCN(CC)CC4)cc3)c12 | 612 s
31 | Cc1cccc(Cc2cnc[nH]2)c1C | 667 s
32 | Cc1cc(C)cc(Nc2c(-c3ccc(C(=O)O)cc3)nc3cnccn23)c1 | 779 s
33 | CCN(CC)CCCNC(=O)C1CCCN(c2nnc(C)c3c(C)n(-c4ccccc4)nc23)C1 (stereo not given) | 556 s
34 | O=c1c2cc(-c3ccc(F)cc3)nn2ccn1Cc1ccc(Cl)cc1 | 1090 s
35 | CN1C(=O)[C@H]2CN(Cc3ccc(Cl)c(F)c3)C[C@H]2C1=O | 632 s
36 | Cc1c(CCC(=O)N[C@H](CCS(C)=O)C(=O)O)c(=O)oc2cc(O)ccc12 (stereo not given in full) | 575 s
37 | Cc1cc(C)cc(NS(=O)(=O)c2ccc(-c3nnc(C4CCC4)o3)o2)c1 | 996 s
38 | O=C(c1ccc(F)c(F)c1)N1CCC(n2c(-c3ccco3)nc3cccnc32)C1 (stereo not given) | 776 s
39 | Cc1nc(CC(=O)Nc2nc(-c3ccc(C)c(C)c3)cs2)cs1 | 989 s
40 | COc1cccc(C2Cn3nnc(-c4nc(-c5ccccc5F)no4)c3CO2)c1 (stereo not given) | 1100 s

Second part, the compound after the results:

Row | RP-LC retention time | SMILES
41 | 1290 s | Cc1ccccc1-c1noc(C2CCCN2S(=O)(=O)c2ccc(Cl)cc2C)n1 (stereo not given)
42 | 764 s | COCCCN(CC(=O)N1CCc2sccc2C1COc1ccccc1F)C(C)=O (stereo not given)
43 | 700 s | CC(C)NC(=O)c1cccc2c1CCN2C(=O)C1CC1
44 | 767 s | C=CCNC(=O)C1CCN(S(=O)(=O)c2cc(Cl)ccc2OCC)CC1
45 | 913 s | COc1ccc(CN2CC3(CCN(S(=O)(=O)c4ccccc4Cl)CC3)C2=O)cc1
46 | 652 s | O=C(NCc1cccc(F)c1)N1CCCC(Cn2cnc3cccnc32)C1 (stereo not given)
47 | 714 s | Cc1sc(NC(=O)c2ccncc2)nc1-c1ccc2c(c1)NC(=O)C(C)O2 (stereo not given)
48 | 621 s | Cc1cc(C)n(CCC(=O)NCC23CCCC=C2NC(=O)CC3)n1 (stereo not given)
49 | 754 s | COc1ccc(-c2cn3c(CC(=O)N4CCc5ccccc5C4)csc3n2)cc1OC
50 | 701 s | O=C(NC1CCN(c2cc(-c3cccs3)[nH]n2)C1)c1ccccc1Cl (stereo not given)
51 | 846 s | Cc1[nH]c2ccccc2c1C(=O)C(=O)Nc1ccccc1F
52 | 641 s | CCCNC(=O)C1CCCN(c2nc3ncn(CC(=O)NC4CCCC4)c(=O)c3s2)C1 (stereo not given)
53 | 796 s | CCCCNC(=O)c1nc(Nc2ccc(F)cc2)c2ccccc2n1
54 | 1200 s | COc1ccc(-c2nc(Cn3c(=O)c4c(C)cc(C)nc4n(C)c3=O)c(C)o2)cc1
55 | 537 s | Cc1cc(C)c2c(N3CCCC3)nc(C(=O)NCc3cccnc3)nc2n1
56 | 1080 s | Cc1nc2nc(-c3ccc(C(C)(C)C)cc3)nn2c(C)c1CC(=O)N1CCCCC1C (stereo not given)
57 | 912 s | CC(C)NC(=O)N1CCN(c2nc3ccccc3n(Cc3ccccc3)c2=O)CC1
58 | 916 s | O=C(NCC1CCCO1)c1cn(-c2ccccc2)nc1-c1ccccc1 (stereo not given)
59 | 754 s | CCCS(=O)(=O)N1CCOc2ccc(NC(=O)C3CC3)cc2C1
60 | 1090 s | O=C(Nc1ccc(Cl)cc1F)c1cc(C2CC2)on1
61 | 1010 s | O=C(Nc1ccc2c(c1)OCCO2)c1cc2nc(N3CCCCC3)sc2s1
62 | 1320 s | CCOc1cccc(-c2noc(-c3nnn4c3COC(c3ccc(Cl)cc3)C4)n2)c1 (stereo not given)
63 | 1010 s | COc1cc(OC)cc(-c2nc(-c3cccc(-c4ccn[nH]4)c3)no2)c1
64 | 782 s | Cc1noc(-c2cc(=O)n(CC(=O)NC3CCCC3)c3ccccc23)n1
65 | 714 s | Cc1cccc(NC(=O)Cn2nc3c(N(C)C4CCCCC4)nccn3c2=O)c1

Row | RP-LC retention time | SMILES
66 | 739 s | CCOC(=O)c1nc(N2CCN(Cc3ccc4c(c3)OCO4)CC2)c2ccccc2n1
67 | 558 s | CSc1ccccc1CN1CCC(CNC(=O)C(=O)Nc2ccon2)CC1
68 | 847 s | CC1CCc2nc3ncn(CC(=O)NCCC4=CCCCC4)c(=O)c3cc2C1 (stereo not given)
69 | 613 s | COc1ccc(-c2cc(C(=O)N3CCN(C)CC3)nn2C2CCS(=O)(=O)C2)cc1 (stereo not given)
70 | 726 s | CCN(CC)c1nc2ccsc2c(=O)n1CCC(=O)NC1CCCC1
71 | 1070 s | CCCOc1ccc(C2C(=O)N(C3CCC(C)CC3)CC(=O)N2Cc2ccco2)cc1OC (stereo not given)
72 | 782 s | CCCn1cc(CCNC(=O)Nc2cccc(C)c2)c2cccnc21
73 | 746 s | O=C(Nc1cnc(N2CCOCC2)nc1)c1cc(F)ccc1Cl
74 | 670 s | CCS(=O)(=O)N1CCC[C@@H]2CN3CCc4cc(OC)ccc4[C@@H]3C[C@@H]21
75 | 948 s | COc1ccccc1CC1C(=O)Nc2ccc(Cl)cc21 (stereo not given)
76 | 660 s | COc1ccc(N2CCCn3c2nc2c3c(=O)n(CC(=O)O)c(=O)n2C)cc1
77 | 848 s | Cc1c(C)n(-c2ccccc2)c2ncn(CC(=O)NC(C)Cc3ccco3)c(=O)c12 (stereo not given)
78 | 725 s | O=C(NCCCn1c(-c2ccncc2)nc2cccnc21)Nc1cccc(C(F)(F)F)c1
79 | 850 s | CC(C)CNC(=O)c1n[nH]c2c1CCCCCC2
80 | 583 s | CNC(=O)N1CCC(OC(C)=O)CC1
81 | 763 s | Cc1cc(C)cc(NS(=O)(=O)c2cn(CC(C)C)c3ncccc23)c1
82 | 686 s | Cc1cnc(C2CCC2)n1CC1CCN(S(=O)(=O)c2ccccc2)CC1
83 | 958 s | CC1(C(=O)NCc2ccccc2)CCCN(C(=O)Nc2ccccc2C(F)(F)F)C1 (stereo not given)
84 | 722 s | O=C(CN1C(=O)NC2(CCCCC2)C1=O)Nc1ccccc1
85 | 759 s | c1ccc(-c2nnc3sc(-c4ccc5c(c4)OCO5)nn23)nc1
86 | 704 s | NC(=O)c1ccc2c(c1)CCCN2C(=O)c1ccc(Cl)cc1
87 | 542 s | CNC(=O)CN(C)C(=O)C1CCCCc2nnc(C(C)C)n21 (stereo not given)
88 | 942 s | CCCN1C(=O)C(C)(C(=O)NCc2ccccc2Cl)Oc2cccnc21 (stereo not given)
89 | 714 s | COc1ccc(N2CCN(C(=O)CN3CCN(Cc4ccccc4)C3=O)CC2)cc1
90 | 996 s | COC(=O)c1nnn(-c2ccc(C(C)C)cc2)c1C(=O)OC
